Results taken from US20140199401A1, “EXTENDED RELEASE PHARMACEUTICAL COMPOSITIONS OF FESOTERODINE” (CADILA HEALTHCARE LIMITED, priority 2011, published 2014).
Where a name gives a salt, the structure may show the parent alone.

Experiment: Particle size data of fesoterodine fumarate
Type: physicochemical
Description: (Particle size data of Fesoterodine fumarate: D10-47.3μ; D50-156μ; D90-293μ) • Procedure: Mixture of fesoterodine fumarate, microcrystalline cellulose, corn starch, lactose monohydrate, hypromellose, and povidone K 30 was lubricated with magnesium stearate and talc. The lubricated blend was then compressed into tablets. The tablets were finally coated with Opadry dispersion in purified water.
The formulation was prepared with the same excipients in the same quantity as used in Example 1. Only difference is in the particle size of fesoterodine fumarate used in that formulation. In this comparative example, particle size of fesoterodine fumarate is used such that D10-2.67μ; D50-34.48μ; D90-125.3μ.

[1] = fesoterodine fumarate used in Comparative Example 1
[2] = fesoterodine fumarate used in Example 1

CC(C)C(=O)Oc1ccc(CO)cc1[C@H](CCN(C(C)C)C(C)C)c1ccccc1 [Fesoterodine fumarate, 2-[(1R)-3-(diisopropylamino)-1-phenylpropyl]-4-(hydroxymethyl)phenyl isobutyrate]
Particle size D10 [1]: 2.67 μ | Particle size D50 [1]: 34.48 μ | Particle size D90 [1]: 125.3 μ | Particle size D10 [2]: 47.3 μ | Particle size D50 [2]: 156 μ | Particle size D90 [2]: 293 μ
